One block for each compound: values may come before it. Active and inactive are the calls of the source. The calls are words filed in the database; no cut-off is given here.
How the values were obtained:
[1] = target: T1, Dual specificity calcium/calmodulin-dependent 3',5'-cyclic nucleotide phosphodiesterase 1C (Homo sapiens, UniProt Q14123); test: Inhibition of PDE1C2 (147 to 531 residues) (unknown origin) using 3H-cGMP as substrate incubated for 15 mins by liquid scintillation counter analysis
T1 sequence (Q14123 whole entry, the tested form may be a part): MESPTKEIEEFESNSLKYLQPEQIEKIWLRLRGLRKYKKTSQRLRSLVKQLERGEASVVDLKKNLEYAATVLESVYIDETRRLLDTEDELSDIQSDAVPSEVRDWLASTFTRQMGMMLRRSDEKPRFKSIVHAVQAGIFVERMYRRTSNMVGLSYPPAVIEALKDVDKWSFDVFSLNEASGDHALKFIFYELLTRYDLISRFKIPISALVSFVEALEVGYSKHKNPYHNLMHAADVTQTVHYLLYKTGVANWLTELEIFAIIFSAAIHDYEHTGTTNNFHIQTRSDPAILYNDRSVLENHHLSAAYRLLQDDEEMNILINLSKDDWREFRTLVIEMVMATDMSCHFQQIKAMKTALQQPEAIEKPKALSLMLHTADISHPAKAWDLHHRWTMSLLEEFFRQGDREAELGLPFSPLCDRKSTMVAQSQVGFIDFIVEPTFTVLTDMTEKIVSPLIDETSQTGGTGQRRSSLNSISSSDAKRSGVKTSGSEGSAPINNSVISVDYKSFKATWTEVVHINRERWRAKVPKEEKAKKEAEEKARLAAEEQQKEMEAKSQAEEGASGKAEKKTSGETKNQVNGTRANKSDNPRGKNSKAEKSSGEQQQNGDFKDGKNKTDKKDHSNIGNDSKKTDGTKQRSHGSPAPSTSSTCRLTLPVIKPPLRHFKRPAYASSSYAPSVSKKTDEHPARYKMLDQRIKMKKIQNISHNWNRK

[2] = target: T1, Dual specificity calcium/calmodulin-dependent 3',5'-cyclic nucleotide phosphodiesterase 1C; test: Inhibition of PDE1C2 (147 to 531 residues) (unknown origin) using 3H-cGMP as substrate at 8000 nM incubated for 15 mins by liquid scintillation counter analysis relative to control
[3] = Half life in rat liver microsomes at 1.5 uM; type: ADME, Microsome
Rattus norvegicus [4] = test: Antifibrotic activity against bile duct ligation induced Sprague-Dawley rat liver fibrosis model assessed as reduction in alpha-smooth muscle actin level in liver at 2.5 mg/kg,ip administrated once daily for 21 days by immunofluorescence staining based analysis; type: functional, organism-based; details: time 21.0 day
Rattus norvegicus [5] = test: Antifibrotic activity against bile duct ligation induced Sprague-Dawley rat liver fibrosis model assessed as downregulation of collagen I expression in liver at 2.5 mg/kg,ip administrated once daily for 21 days by Western blotting analysis; type: functional, organism-based; details: time 21.0 day
Rattus norvegicus [6] = test: Antifibrotic activity against bile duct ligation induced Sprague-Dawley rat liver fibrosis model assessed as increase in cGMP level in liver at 2.5 mg/kg,ip administrated once daily for 21 days by ELISA; type: functional, organism-based; details: time 21.0 day
Rattus norvegicus [7] = test: Antifibrotic activity against bile duct ligation induced Sprague-Dawley rat liver fibrosis model assessed as reduction in fibrotic lesion at 2.5 mg/kg,ip administrated once daily for 21 days by hematoxylin and eosin staining based analysis; type: functional, organism-based; details: time 21.0 day
Rattus norvegicus [8] = test: Antifibrotic activity against bile duct ligation induced Sprague-Dawley rat liver fibrosis model assessed as increase in cAMP level in liver at 2.5 mg/kg,ip administrated once daily for 21 days by ELISA; type: functional, organism-based; details: time 21.0 day
Rattus norvegicus [9] = test: Antifibrotic activity against bile duct ligation induced Sprague-Dawley rat liver fibrosis model assessed as reduction in liver damage at 2.5 mg/kg,ip administrated once daily for 21 days by hematoxylin and eosin staining based analysis; type: functional, organism-based; details: time 21.0 day
Rattus norvegicus [10] = test: Antifibrotic activity against bile duct ligation induced Sprague-Dawley rat liver fibrosis model assessed as reduction in collagen deposition at 2.5 mg/kg,ip administrated once daily for 21 days by Masson's trichome staining based analysis; type: functional, organism-based; details: time 21.0 day
Rattus norvegicus [11] = test: Antifibrotic activity against bile duct ligation induced Sprague-Dawley rat liver fibrosis model assessed as reduction in AST level at 2.5 mg/kg,ip administrated once daily for 21 days; type: functional, organism-based; details: time 21.0 day
Rattus norvegicus [12] = test: Antifibrotic activity against bile duct ligation induced Sprague-Dawley rat liver fibrosis model assessed as reduction in total bile acid level at 2.5 mg/kg,ip administrated once daily for 21 days; type: functional, organism-based; details: time 21.0 day
Rattus norvegicus [13] = test: Antifibrotic activity against bile duct ligation induced Sprague-Dawley rat liver fibrosis model assessed as downregulation of alpha-SMA expression in liver at 2.5 mg/kg,ip administrated once daily for 21 days by Western blotting analysis; type: functional, organism-based; details: time 21.0 day
Rattus norvegicus [14] = test: Antifibrotic activity against bile duct ligation induced Sprague-Dawley rat liver fibrosis model assessed as reduction in ALT level at 2.5 mg/kg,ip administrated once daily for 21 days; type: functional, organism-based; details: time 21.0 day

Structure (SMILES): CC1=C(C(=O)OCC2CCCCC2)C(c2ccc(OC(F)F)c(OCC3CC3)c2)N(/C=C/Cc2ccccc2)C(=O)N1 (stereo unspecified)
inhibition [2]: 47%

Structure (SMILES): CC1=C(C(=O)OCC2CCCCC2)C(c2cccc(Oc3ccccc3)c2)NC(=O)N1 (stereo unspecified)
IC50 [1]: 2940 nM

Structure (SMILES): CC1=C(C(=O)OCC2CCCCC2)C(c2ccc(OC(F)F)c(OCC3CC3)c2)N(C(=O)/C=C/c2ccccc2)C(=O)N1 (stereo unspecified)
IC50 [1]: 6060 nM

Structure (SMILES): CC1=C(C(=O)OCC2CCCCC2)C(c2ccc(OC(F)F)c(OCC3CC3)c2)N(C)C(=O)N1 (stereo unspecified)
inhibition [2]: 45%

Structure (SMILES): COc1ccc(C2NC(=O)NC(C)=C2C(=O)OCC2CCCCC2)cc1OC (stereo unspecified)
IC50 [1]: 3590 nM

Structure (SMILES): CCNC(=O)N1C(=O)NC(C)=C(C(=O)OCC2CCCCC2)C1c1ccc(OC(F)F)c(OCC2CC2)c1 (stereo unspecified)
IC50 [1]: 4690 nM

Structure (SMILES): CC(=O)N1C(=O)NC(C)=C(C(=O)OCC2CCCCC2)C1c1ccc(OC(F)F)c(OCC2CC2)c1 (stereo unspecified)
IC50 [1]: 2320 nM

Structure (SMILES): CC1=C(C(=O)OCC2CCCCC2)C(c2ccc(OC(F)F)c(OCC3CC3)c2)N(Cc2cccc(F)c2)C(=O)N1 (stereo unspecified)
inhibition [2]: 40%

Structure (SMILES): CC1=C(C(=O)OCC2CCCCC2)C(c2ccc(Cl)nc2)N(C(=O)OCC2CCCCC2)C(=O)N1 (stereo unspecified)
IC50 [1]: 195 nM

More lines, main results first:

IC50 [1]: 103 nM
Structure (SMILES): COC(=O)C1=C(C)NC(=O)N(C(=O)SCc2ccccc2)C1c1ccc(OC(F)F)c(OCC2CC2)c1 (stereo unspecified)

half-life at 1.5 µM [3]: 3.03 min | IC50 [1]: 7.5 nM
Structure (SMILES): CC1=C(C(=O)OCC2CCCCC2)C(c2ccc(OC(F)F)c(OC(F)F)c2)N(C(=O)OCC2CCCCC2)C(=O)N1 (stereo unspecified)

half-life at 1.5 µM [3]: 3.68 min | IC50 [1]: 2.3 nM
Structure (SMILES): CC1=C(C(=O)OCC2CCCCC2)C(c2ccc(OC(F)F)c(OCC3CC3)c2)N(C(=O)OCC2CCCCC2)C(=O)N1 (stereo unspecified)

half-life at 1.5 µM [3]: 6.1 min | IC50 [1]: 5.8 nM
Structure (SMILES): CC1=C(C(=O)OCC2CCCCC2)C(c2ccc(OC(F)F)c(OCC3CC3)c2)N(C(=S)Oc2ccccc2)C(=O)N1 (stereo unspecified)

IC50 [1]: 42 nM
Structure (SMILES): COc1ccc(C2C(C(=O)OCC3CCCC3)=C(C)NC(=O)N2C(=O)OCC2CCCC2)cc1OC (stereo unspecified)

IC50 [1]: 37 nM
Structure (SMILES): COC(=O)C1=C(C)NC(=O)N(C(=O)OCC2CCCCC2)C1c1ccc(OC(F)F)c(OCC2CC2)c1 (stereo unspecified)

IC50 [1]: 63 nM
Structure (SMILES): COc1ccc(C2C(C(=O)OCc3ccccc3)=C(C)NC(=O)N2C(=O)OCc2ccccc2)cc1OC (stereo unspecified)

IC50 [1]: 42 nM
Structure (SMILES): CC1=C(C(=O)OCC2CCCCC2)C(c2cccc(OCC3CC3)c2)N(C(=O)SCc2ccccc2)C(=O)N1 (stereo unspecified)

half-life at 1.5 µM [3]: 7.1 min | IC50 [1]: 21 nM
Structure (SMILES): CC1=C(C(=O)OCC2CCCCC2)C(c2ccc(OC(F)F)cc2)N(C(=O)SCc2ccccc2)C(=O)N1 (stereo unspecified)
Activity (Rattus norvegicus [4]): Active | Activity (Rattus norvegicus [5]): Active | Activity (Rattus norvegicus [6]): inactive | Activity (Rattus norvegicus [7]): Active | Activity (Rattus norvegicus [8]): Active | Activity (Rattus norvegicus [9]): Active | Activity (Rattus norvegicus [10]): Active | Activity (Rattus norvegicus [11]): Active | Activity (Rattus norvegicus [12]): Active | Activity (Rattus norvegicus [13]): Active | Activity (Rattus norvegicus [14]): Active

IC50 [1]: 51 nM
Structure (SMILES): COc1ccc(C2C(C(=O)OCC3CCCCC3)=C(C)NC(=O)N2C(=O)OCC2CCCCC2)cn1 (stereo unspecified)

half-life at 1.5 µM [3]: 2.1 min | IC50 [1]: 5.9 nM
Structure (SMILES): COc1ccc(C2C(C(=O)OCC3CCCCC3)=C(C)NC(=O)N2C(=O)OCC2CCCCC2)cc1OC (stereo unspecified)

From ChEMBL document CHEMBL5506023, “Design, Synthesis, and Evaluation of Dihydropyrimidine Derivatives as Selective PDE1 Inhibitors for the Treatment of Liver Fibrosis” (J Med Chem, 2024)
